Test results: patent US20140328840A1, “MARKER AND TARGET FOR RESPONSIVENESS AND RESISTANCE TO CANCER AGENTS” (The Provost, Fellows, Foundation Scholars, and the Other …, priority 2011, published 2014)

Columns and labels:
[1] = test system: SKBR3-LR, HCC1954-LR, T47D and MDA-MB-361 cells; assay: Effects of NmU siRNAs with HER-targeted drugs on proliferation (acid phosphatase); type: cell-based
Protocol: (§1) Two siRNAs, designated NmU-1 (SEQ ID NO: 3; 5′-[…]-3′) and NmU-2 (SEQ ID NO: 4; 5′-[…]-3′) (s225456 and s21351, respectively, Ambion, UK), (30 nM) were used to target NmU. Scrambled siRNA (SCR) (AM4611, Ambion, UK) was used as negative control. Transient transfections were harvested 72 hours post-transfection for RNA and protein extraction. NmU full-length cDNA was sub-cloned from pOTB7 (clone ID3502168, Open Biosystems, Ireland) by PCR into pcDNA 3.1(+) zeo-plasmid vector (Invitrogen, Ireland). The construct was verified by DNA sequencing. Mock controls used were of pcDNA3.1(+) plasmid lacking NmU cDNA. Lipofectamine 2000 (Invitrogen, Ireland) was used for transfection following the manufacturer's instructions. Stable transfectants were established by selecting with zeocin (50 μg/ml and 300 μg/ml for HCC1954 and SKBR3 transfected cells, respectively; based on initial assessment of the toxicity of zeocin on these cells) (Invitrogen, Ireland).
(§2) To investigate if knock-down of NmU affected response to HER-targeting, cell lines with acquired Lapatinib-resistance (SKBR3-LR, HCC1954-LR) and innately unresponsive (MDA-MB-361, T47D) were assessed. […] Similarly, fixed concentrations of Neratinib (1 μM) and Afatinib (0.5 μM) were used. These were cultured for 72 hours and subsequently assessed using acid phosphate analysis.

HCC1954 cells [2] = assay: Resistance to HER-targeted drugs after exogenous NmU treatment; type: cell-based; conditions: HCC1954, exogenous NmU (NmU-25) 48 hours; all drugs
Protocol: (§3) To assess if functional NmU receptors are expressed on cells, SKBR3 and HCC1954, (1×10^6 cells) were seeded in 25 cm^2 flask, allowed attach overnight and subsequently treated with 1 μM of NmU-25 (Bachem, Switzerland) for 24-48 hours.

[3] = test system: NmU mRNA in HCC1954 cells; assay: Short-term drug exposure, qPCR of NmU mRNA in conditioned medium and cells; type: cell-based; conditions: 48 hours; for induced NmU mRNA in CM / induced NmU mRNA in cells: HCC1954, 0.5 μM, vs untreated control
Protocol: (§4) Conditioned medium (CM) was collected, centrifuged and filtered, as previously described (1-2), prior to NmU mRNA and protein analysis.
(§5) Total RNA was isolated from cell lines and CM using TriReagent (Sigma-Aldrich). In order to remove any potential contaminating genomic DNA, RNA was treated with DNase enzymes and minus reverse transcriptase enzyme controls verified no DNA/pseudogene contamination of starting material. cDNA was prepared from 500ng cell-derived and 4 μl CM-derived total RNA, respectively.

HCC1954-NmU cells = assay: Proliferation assay, NmU cDNA- versus mock-transfected cells; type: cell-based; conditions: HCC1954-NmU vs HCC1954-mock
Protocol: as §1
(§6) Cells with acquired-resistance compared to aged-parent cells and NmU cDNA-versus mock-transfected cells (HCC1954 variants, 2×10^3 cells/well; SKBR3 variants, 5×10^3 cells/well) were seeded for 24 hours prior to drug additions. […] Five days later, acid phosphatase assay was performed as previously detailed (3).

SKBR3-NmU cells = assay: as above; type: cell-based; conditions: SKBR3-NmU vs SKBR3-mock
Protocol: as §1, §6

HER2 = assay: Exogenous NmU treatment, HER2 expression; type: cell-based; conditions: 1 μM, 24-48 hours; SKBR3 and HCC1954 cells
Protocol: as §3
(§7) Total cellular proteins (30-40 μg, depending on the specific protein's abundance; but constant for any given protein) were resolved on 6-10% SDS-PAGE and transferred to PVDF membranes (Millipore, Ireland). Primary antibodies used included EGFR (Neomarker); HER2 (Calbiochem); Akt, p-Akt (Cell Signalling); NmU-R1 (Sigma-Aldrich); NmU-R2 (LifeSpan Biosciences); β-actin (Sigma-Aldrich). Membranes were incubated with appropriate horseradish peroxidase-conjugated secondary antibodies (Cell Signalling) and proteins were visualized by chemiluminescence (Millipore). Detection was performed with a Chemidoc exposure system (Bio-Rad Laboratories). ELISA kit for NmU (Peninsula Laboratories, US), HER2 (Calbiochem, US), p-HER2, EGFR, p-EGFR (R&D Systems, US) were used according to the manufacturer's instructions.

EGFR = assay: Exogenous NmU treatment, EGFR expression; type: cell-based; conditions: 1 μM, 24-48 hours
Protocol: as §3, §7

SKBR3-Ag cells = assay: Proliferation assay (acid phosphatase), aged parent SKBR3; type: cell-based; conditions: Homo sapiens, SK-BR-3, 120 h, read-out: concentration that inhibits 50% of proliferation (IC50), five days
Protocol: (§8) SKBR3, HCC1954, MDA-MB-361, T47D cells, obtained from ATCC, were cultured in RPMI-1640 (Sigma-Aldrich) with 10% FCS (PAA) and 1% L-glutamine. […] Lapatinib-resistant SKBR3 and HCC1954 cells (SKBR3-LR, HCC1954-LR) were established by continuously exposing cells to Lapatinib, starting with 5 nM and incrementally increasing to 250 nM over 6 months. Neratinib-resistant SKBR3 and HCC1954 cells (SKBR3-NR, HCC1954-NR) resulted from continuously exposing cells to Neratinib, starting with 10 nM and incrementally increasing to 250 nM over 6 months.
as §6

HCC1954 cells [4] = conditions: cited from earlier work
HCC1954-Ag cells = assay: Proliferation assay (acid phosphatase), aged parent HCC1954; type: cell-based; conditions: Homo sapiens, 120 h, read-out: concentration that inhibits 50% of proliferation (IC50), five days
Protocol: as §8, §6

T47D = conditions: cited from earlier work
SKBR3 cells = conditions: cited from earlier work
NmU mRNA in SKBR3 cells = assay: Short-term drug exposure, qPCR of NmU mRNA in conditioned medium and cells; type: cell-based; conditions: SKBR3, 1 μM, 48 hours, vs untreated control CM
Protocol: as §4, §5

SKBR3-LR cells = assay: Proliferation assay (acid phosphatase), Lapatinib-resistant SKBR3; type: cell-based
Protocol: as §8, §6

MDA-MB-361 = conditions: cited from earlier work
MDA-MB-361 cells = assay: Proliferation, previously determined IC50; type: cell-based; conditions: Homo sapiens; MDA-MB-361, previously determined; read-out: approximate IC50 concentration
Protocol: as §2

T47D cells = assay: Proliferation, previously determined IC50; type: cell-based; conditions: Homo sapiens, read-out: approximate IC50 concentration
Protocol: as §2

HCC1954-LR cells = assay: Proliferation assay (acid phosphatase), Lapatinib-resistant HCC1954; type: cell-based
Protocol: as §8, §6

With `CN(C)C/C=C/C(=O)Nc1cc2c(Nc3ccc(F)c(Cl)c3)ncnc2cc1O[C@H]1CCOC1` [Afatinib] the inhibition at 0.5 µM ([1]; 0.5 μM, 72 hours, NmU-1/NmU-2 siRNA vs SCR, range over cell lines and siRNAs, read-out: further inhibition of growth with NmU knock-down) was 18 to 47%, the “level of resistance induced by exogenous NmU” value (“level of resistance induced” for short) (HCC1954 cells [2]) was 1.1 fold and the “induced NmU mRNA in CM” value [3] was 3.3±0.49 fold. The “induced NmU mRNA in cells” value [3] was 3±0.38 fold.
In the case of `CCOc1cc2ncc(C#N)c(Nc3ccc(OCc4ccccn4)c(Cl)c3)c2cc1NC(=O)/C=C/CN(C)C` [Neratinib], the inhibition at 1 µM ([1]; 72 h, read-out: further inhibition of growth with NmU knock-down) is reported as 19 to 58%, the “level of resistance induced” value (HCC1954 cells [2]) is reported as 1.1 fold and the “induced NmU mRNA in CM” value [3] is reported as 3.6±1 fold. The “induced NmU mRNA in cells” value [3] was 3.6±0.54 fold, the “anti-proliferative effects in NmU-transfected compared to mock-transfected cells” value (HCC1954-NmU cells) was “significantly compromised” and the “anti-proliferative effects in NmU-transfected compared to mock-transfected cells” value (SKBR3-NmU cells) was “significantly compromised”.
With “NmU-25: exogenous NeuromedinU 25 amino acid active peptide (Bachem) (FRVDEEFQSPFASQSRGYFLFRPRN)” the “expression of HER2 protein” value (HER2) was “induced expression”, the “expression of EGFR protein” value (EGFR; SKBR3 and HCC1954 cells) was “induced expression” and the pEGFR (EGFR; SKBR3 cells) was “induced expression”.
For `CS(=O)(=O)CCNCc1ccc(-c2ccc3ncnc(Nc4ccc(OCc5cccc(F)c5)c(Cl)c4)c3c2)o1` [Lapatinib], the IC50 (SKBR3-Ag cells) is given as 90 nM, the innate sensitivity/resistance (HCC1954 cells [4]) is given as “sensitive” and the IC50 (HCC1954-Ag cells) is given as 300 nM. The “further inhibition of proliferation with NmU knock-down” value ([1]; drug at IC50 concentration, 72 hours, NmU-1/NmU-2 siRNA vs SCR, range over cell lines and siRNAs) was 12-49%, the innate sensitivity/resistance (T47D) was “unresponsive” and the “level of resistance induced” value (HCC1954 cells [2]) was 1.1 fold. For the same compound, the innate sensitivity/resistance (SKBR3 cells) was “sensitive”, the “levels of NmU mRNA detectable in CM” value ([3]; HCC1954, 1 μM, vs untreated control CM) was “significantly higher” and the “levels of NmU mRNA detectable in CM” value (NmU mRNA in SKBR3 cells) was “significantly higher”. The IC50 (SKBR3-LR cells; Homo sapiens, SK-BR-3, 120 h, read-out: concentration that inhibits 50% of proliferation (IC50), SKBR3-LR, five days) was ~3000 nM, the fold resistance (SKBR3-LR cells; SKBR3-LR in relation to SKBR3-Ag) was 29.8±2.2 fold and the “anti-proliferative effects in NmU-transfected compared to mock-transfected cells” value (HCC1954-NmU cells) was “significantly compromised”. For the same compound, the “anti-proliferative effects in NmU-transfected compared to mock-transfected cells” value (SKBR3-NmU cells) was “significantly compromised”, the innate sensitivity/resistance (MDA-MB-361) was “resistant” and the IC50 (MDA-MB-361 cells) was ~1000 nM. It also gave an IC50 (T47D cells) of ~5000 nM, a fold resistance (HCC1954-LR cells; HCC1954-LR compared to HCC1954-Ag) of 19.1±2.8 fold and an IC50 (HCC1954-LR cells; Homo sapiens, HCC1954, 120 h, read-out: concentration that inhibits 50% of proliferation (IC50), HCC1954-LR, five days) of ~5000 nM.
